{"source": "ChEMBL document CHEMBL1142009", "about": "“Efficient synthesis of bicyclic oxazolino- and thiazolino[3,2-c]pyrimidine-5,7-diones and its application to the synthesis of GnRH antagonists” (Bioorg Med Chem Lett, 2005)", "data": [{"target": "T1, Gonadotropin-releasing hormone receptor (Homo sapiens, UniProt P30968)", "T1 sequence (P30968 whole entry)": "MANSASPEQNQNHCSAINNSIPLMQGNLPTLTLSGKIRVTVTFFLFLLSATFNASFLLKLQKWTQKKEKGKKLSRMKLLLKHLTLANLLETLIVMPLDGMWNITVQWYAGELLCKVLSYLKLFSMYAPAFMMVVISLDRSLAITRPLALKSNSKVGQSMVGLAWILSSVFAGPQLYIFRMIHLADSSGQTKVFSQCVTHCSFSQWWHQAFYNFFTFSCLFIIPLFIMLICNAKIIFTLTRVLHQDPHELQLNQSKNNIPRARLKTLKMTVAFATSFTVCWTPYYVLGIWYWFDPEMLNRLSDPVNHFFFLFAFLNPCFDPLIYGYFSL", "test": "Binding affinity was determined against human gonadotropin-releasing hormone receptor", "units": {"Ki": "nM"}, "values": [{"smiles": "COc1cccc(-c2c3n(c(=O)n(CCNCc4ccccc4)c2=O)[C@@H](c2ccccc2)CO3)c1F", "Ki": 460}, {"smiles": "N[C@@H](Cn1c(=O)c(-c2ccccc2F)c2n(c1=O)C(c1ccccc1)CS2)c1ccccc1", "note": "(stereo not given in full)", "Ki": 110}, {"smiles": "COc1cccc(-c2c3n(c(=O)n(CC(N)c4ccccc4)c2=O)C(c2ccccc2)CO3)c1", "note": "(stereo not given)", "Ki": 870}, {"smiles": "NC(Cn1c(=O)c(-c2ccccc2Cl)c2n(c1=O)C(c1ccccc1F)CS2)c1ccccc1", "note": "(stereo not given)", "Ki": 93}, {"smiles": "COc1cccc(-c2c3n(c(=O)n(CC(N)c4ccccc4)c2=O)C(c2ccccc2F)CS3)c1Cl", "note": "(stereo not given)", "Ki": 4.5}, {"smiles": "NC(Cn1c(=O)c(-c2ccccc2F)c2n(c1=O)C(c1ccccc1)CO2)c1ccccc1", "note": "(stereo not given)", "Ki": 700}, {"smiles": "NC(Cn1c(=O)c(-c2ccccc2F)c2n(c1=O)C(c1ccccc1F)CO2)c1ccccc1", "note": "(stereo not given)", "Ki": 230}, {"smiles": "COc1cccc(-c2c3n(c(=O)n(CC(N)c4ccccc4)c2=O)C(c2ccccc2F)CS3)c1F", "note": "(stereo not given)", "Ki": 40}, {"smiles": "NC(Cn1c(=O)c(-c2ccccc2F)c2n(c1=O)C(c1ccccc1F)CS2)c1ccccc1", "note": "(stereo not given)", "Ki": 220}, {"smiles": "COc1cccc(-c2c3n(c(=O)n(CC(N)c4ccccc4)c2=O)C(c2ccccc2)CO3)c1F", "note": "(stereo not given)", "Ki": 125}]}]}
